pIC50: −log10 of the molar value. Where two headings read alike, the source gives them in different places. Each block holds one compound with its values, some of them ahead of it. Numbered stars: 1 amine (or outer) side, 2 acyl side, 3 side chain; on linkers, the order of the positions; unused ones are H or OH. Bridge positions count the residues as written; N and C are the ends. Square brackets hold non-standard residues; d marks the D form. Peptide text beside a SMILES is read from it. Phe(4-CF3) = N[C@@H](Cc1ccc(C(F)(F)F)cc1)C(=O)O; Bip = N[C@@H](Cc1ccc(-c2ccccc2)cc1)C(=O)O; dPhe(4-NH2) = Nc1ccc(C[C@@H](N)C(=O)O)cc1; Phe(4-NH2) = Nc1ccc(C[C@H](N)C(=O)O)cc1; d(hPhe) = N[C@H](CCc1ccccc1)C(=O)O; d2Thi = N[C@H](Cc1cccs1)C(=O)O; Suc = O=C(CCC(=O)[*:2])[*:1]; Nphe = O=C(O)CNCc1ccccc1; Ac3c = NC1(C(=O)O)CC1; GABA = NCCCC(=O)O
What was measured:
[1] = test system: TNF-α (degradation of IkB in HeLa cells or A431 cells); assay: Human cell-based assay: inhibition of TNF-α induced degradation of IkB; conditions: for inhibition at 25 µM: 25 μM compound, read-out: Inhibition at Various Compound Concentrations, 25 μM; for inhibition at 5 µM: read-out: Inhibition at Various Compound Concentrations, 5 μM; for inhibition at 10 µM: read-out: Inhibition at Various Compound Concentrations, 10 μM
[2] = molecular target: T1, TNFα / TNFα receptor (TNFα R1/Fc) (Homo sapiens, UniProt P01375); assay: Inhibition of binding of TNFα to the TNFα receptor (plate ELISA competition); conditions: Table 2
T1 construct: purchased R&D Systems
T1 sequence (P01375 77-233 limits assumed, species assumed): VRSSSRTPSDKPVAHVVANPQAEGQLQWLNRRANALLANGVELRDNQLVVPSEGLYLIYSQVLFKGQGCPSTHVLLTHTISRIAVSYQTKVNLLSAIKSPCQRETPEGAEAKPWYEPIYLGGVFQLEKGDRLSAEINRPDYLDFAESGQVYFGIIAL
How it was run: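 Plates were coated with TNFα at 15 nM. Test compound and 8.33 nM receptor-Fc (PBST, 2% DMSO) were first mixed in solution for 30 min at room temperature, then transferred to the plates for another 30 min. Competition was read by absorbance at 450 nm after HRP anti-human IgG Fc detection with TMB.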

[3] = read-out: Activity (IC50, inhibition of TNFα binding to TNFα R1/Fc)
[4] = 5 μM compound, HeLa or A431 cells
[5] = 10 μM compound, HeLa or A431 cells
[6] = Activity (IC50, inhibition of TNFα binding to TNFα R1/Fc)

pIC50 [2, 3]: 4.52 to 5.00
Compound: O=C(O)CNC(=O)[C@@H]1Cc2ccc(cc2)NC(=O)CCC(=O)N[C@H](Cc2cccs2)C(=O)N[C@@H](Cc2ccc(-c3ccccc3)cc2)C(=O)N[C@H](Cc2ccccc2)C(=O)N1 [Compound 19] ([d2Thi][Bip][dF][Phe(4-NH2)]G-OH; linker N-4 via Suc)
inhibition at 25 µM ([1]; HeLa or A431 cells): < 10%

pIC50 [2, 3]: > 5.00
Compound: O=C1CCC(=O)N[C@H](Cc2cccs2)C(=O)N[C@@H](Cc2ccc(-c3ccccc3)cc2)C(=O)N[C@H](Cc2ccccc2)C(=O)N[C@@H](C(=O)O)Cc2ccc(cc2)N1 [Compound 196] ([d2Thi][Bip][dF][dPhe(4-NH2)]-OH; linker N-4 via Suc)
inhibition at 25 µM ([1]; HeLa or A431 cells): < 10%

pIC50 [2, 3]: > 5.00
Compound: O=C1CCC(=O)N[C@H](Cc2cccs2)C(=O)N[C@@H](Cc2ccc(-c3ccccc3)cc2)C(=O)N[C@H](CCc2ccccc2)C(=O)N[C@H](C(=O)O)Cc2ccc(cc2)N1 [Compound 47] ([d2Thi][Bip][d(hPhe)][Phe(4-NH2)]-OH; linker N-4 via Suc)
inhibition at 10 µM [1, 5]: < 10%

pIC50 [2, 3]: > 5.00
Compound: C[C@H](NC(=O)[C@@H]1Cc2ccc(cc2)OCC(=O)N[C@@H](Cc2cccs2)C(=O)N[C@@H](Cc2ccc(-c3ccccc3)cc2)C(=O)N[C@@H](Cc2ccccc2)C(=O)N1)C(=O)O [Compound 326]
inhibition at 5 µM [1, 4]: 10 to 50%
inhibition at 10 µM [1, 5]: 10 to 50%

pIC50 [2, 3]: > 5.00
Compound: COC(=O)[C@H](CC(=O)O)NC(=O)[C@@H]1Cc2ccc(cc2)OCC(=O)N[C@@H](Cc2cccs2)C(=O)N[C@@H](Cc2ccc(-c3ccccc3)cc2)C(=O)N[C@@H](Cc2ccccc2)C(=O)N1 [Compound 327]
inhibition at 5 µM [1, 4]: 10 to 50%
inhibition at 10 µM [1, 5]: < 10%

pIC50 [2, 3]: > 5.00
Compound: O=C(O)CCNC(=O)[C@@H]1Cc2ccc(cc2)OCC(=O)N[C@@H](Cc2cccs2)C(=O)N[C@H](Cc2ccc(-c3ccccc3)cc2)C(=O)N[C@@H](Cc2ccccc2)C(=O)N1 [Compound 319]
inhibition at 5 µM [1, 4]: < 10%
inhibition at 10 µM [1, 5]: < 10%

pIC50 [2, 3]: > 5.00
Compound: O=C(O)CCNC(=O)[C@@H]1Cc2ccc(cc2)OCC(=O)N[C@H](Cc2cccs2)C(=O)N[C@@H](Cc2ccc(-c3ccccc3)cc2)C(=O)N[C@H](CCc2ccccc2)C(=O)N1 [Compound 301]
inhibition at 5 µM [1, 4]: < 10%
inhibition at 10 µM [1, 5]: < 10%

pIC50 [2, 3]: > 5.00
Compound: O=C(O)CNC(=O)[C@@H]1Cc2ccc(cc2)OCC(=O)N[C@H](Cc2cccs2)C(=O)N[C@@H](Cc2ccc(-c3ccccc3)cc2)C(=O)N[C@H](CCc2ccccc2)C(=O)N1 [Compound 321]
inhibition at 5 µM [1, 4]: < 10%
inhibition at 10 µM [1, 5]: 10 to 50%

The remaining lines, values behind:

Compound: C[C@@H](NC(=O)[C@@H]1Cc2ccc(cc2)NC(=O)CCC(=O)N[C@H](Cc2cccs2)C(=O)N[C@@H](Cc2ccc(-c3ccccc3)cc2)C(=O)N[C@H](Cc2ccccc2)C(=O)N1)C(=O)O [Compound 24] ([d2Thi][Bip][dF][Phe(4-NH2)][dA]-OH; linker N-4 via Suc)
inhibition at 25 µM ([1]; HeLa or A431 cells): < 10%
pIC50 [2, 3]: 4.00 to 4.52

Compound: O=C1CCC(=O)N[C@H](CCc2ccccc2)C(=O)N[C@@H](Cc2ccc(C(F)(F)F)cc2)C(=O)N[C@H](Cc2ccccc2)C(=O)N[C@@H](C(=O)N[C@@H](Cc2ccccc2)C(=O)O)Cc2ccc(cc2)N1 [Compound 12] ([d(hPhe)][Phe(4-CF3)][dF][dPhe(4-NH2)]F-OH; linker N-4 via Suc)
inhibition at 5 µM [1, 4]: 10 to 50%
inhibition at 10 µM [1, 5]: 10 to 50%
pIC50 [2, 3]: > 5.00

Compound: CC(C)[C@H](NC(=O)[C@@H]1Cc2ccc(cc2)NC(=O)CCC(=O)N[C@H](Cc2cccs2)C(=O)N[C@@H](Cc2ccc(-c3ccccc3)cc2)C(=O)N[C@H](Cc2ccccc2)C(=O)N1)C(=O)O [Compound 26] ([d2Thi][Bip][dF][Phe(4-NH2)]V-OH; linker N-4 via Suc)
inhibition at 25 µM ([1]; HeLa or A431 cells): 10 to 50%
pIC50 [2, 3]: 4.52 to 5.00

Compound: O=C1COc2ccc(cc2)C[C@@H](C(=O)N[C@@H](CCc2ccccc2)C(=O)O)NC(=O)[C@H](Cc2ccccc2)NC(=O)[C@H](Cc2ccc(-c3ccccc3)cc2)NC(=O)[C@H](Cc2cccs2)N1 [Compound 328]
inhibition at 10 µM [1]: 10 to 50%
pIC50 [2, 6]: > 5.00

Compound: O=C(O)[C@@H]1Cc2ccc(cc2)NC(=O)[C@H](O)[C@@H](O)C(=O)N[C@H](Cc2ccccc2)C(=O)N[C@@H](Cc2ccc(-c3ccccc3)cc2)C(=O)N[C@H](Cc2ccccc2)C(=O)N1 [Compound 313]
inhibition at 5 µM [1, 4]: < 10%
inhibition at 10 µM [1, 5]: 10 to 50%
pIC50 [2, 3]: > 5.00

Compound: O=C(O)[C@@H]1Cc2ccc(cc2)NC(=O)[C@H](O)[C@@H](O)C(=O)N[C@H](Cc2cccs2)C(=O)N[C@@H](Cc2ccc(-c3ccc(Cl)cc3)cc2)C(=O)N[C@H](Cc2ccccc2)C(=O)N1 [Compound 180]
inhibition at 5 µM [1, 4]: < 10%
inhibition at 10 µM [1, 5]: < 10%
pIC50 [2, 3]: > 5.00

Compound: O=C1COc2ccc(cc2)C[C@@H](C(=O)O)NC(=O)[C@H](Cc2ccccc2)NC(=O)[C@H](Cc2ccc(-c3ccc(C(=O)OCc4ccccc4)cc3)cc2)NC(=O)[C@H](Cc2cccs2)N1 [Compound 396]
inhibition at 5 µM [1]: 10 to 50%
inhibition at 10 µM [1]: 50 to 80%
pIC50 [2, 3]: > 5.00

Compound: O=C1COc2ccc(cc2)C[C@@H](C(=O)N[C@@H](Cc2ccc(O)cc2)C(=O)O)NC(=O)[C@@H](CCc2ccccc2)NC(=O)[C@H](Cc2ccc(-c3ccccc3)cc2)NC(=O)[C@@H](Cc2cccs2)N1 [Compound 300]
inhibition at 10 µM [1]: 10 to 50%
pIC50 [2, 6]: > 5.00

Compound: O=C1COc2ccc(cc2)C[C@@H](C(=O)NCCO)NC(=O)[C@H](Cc2ccccc2)NC(=O)[C@@H](Cc2ccc(-c3ccccc3)cc2)NC(=O)[C@H](Cc2cccs2)N1 [Compound 390]
inhibition at 5 µM [1]: < 10%
inhibition at 10 µM [1]: 50 to 80%
pIC50 [2, 6]: > 5.00

Compound: C[C@H](NC(=O)[C@@H]1Cc2ccc(cc2)NC(=O)CCC(=O)N[C@H](Cc2cccs2)C(=O)N[C@@H](Cc2ccc(-c3ccccc3)cc2)C(=O)N[C@H](Cc2ccccc2)C(=O)N1)C(=O)O [Compound 20] ([d2Thi][Bip][dF][Phe(4-NH2)]A-OH; linker N-4 via Suc)
inhibition at 25 µM ([1]; HeLa or A431 cells): < 10%
pIC50 [2, 3]: > 5.00

Compound: O=C1CCC(=O)N[C@H](CCc2ccccc2)C(=O)N[C@@H](Cc2ccc(C(F)(F)F)cc2)C(=O)N[C@H](Cc2ccccc2)C(=O)N[C@H](C(=O)NC2(C(=O)O)CC2)Cc2ccc(cc2)N1 [Compound 18] ([d(hPhe)][Phe(4-CF3)][dF][Phe(4-NH2)][Ac3c]-OH; linker N-4 via Suc)
inhibition at 5 µM [1, 4]: 50 to 80%
inhibition at 10 µM [1, 5]: 10 to 50%
pIC50 [2, 3]: 4.52 to 5.00

Compound: O=C1CCC(=O)N[C@H](CCc2ccccc2)C(=O)N[C@@H](Cc2ccc(-c3ccccc3)cc2)C(=O)N[C@H](Cc2ccccc2)C(=O)N[C@H](C(=O)O)Cc2ccc(cc2)N1 [Compound 117] ([d(hPhe)][Bip][dF][Phe(4-NH2)]-OH; linker N-4 via Suc)
inhibition at 5 µM [1, 4]: < 10%
inhibition at 10 µM [1, 5]: 50 to 80%
pIC50 [2, 3]: > 5.00

Compound: O=C(O)CN(Cc1ccccc1)C(=O)[C@@H]1Cc2ccc(cc2)NC(=O)CCC(=O)N[C@H](Cc2cccs2)C(=O)N[C@@H](Cc2ccc(-c3ccccc3)cc2)C(=O)N[C@H](Cc2ccccc2)C(=O)N1 [Compound 36] ([d2Thi][Bip][dF][Phe(4-NH2)][Nphe]-OH; linker N-4 via Suc)
inhibition at 5 µM [1, 4]: 10 to 50%
inhibition at 10 µM [1, 5]: 50 to 80%
inhibition at 25 µM ([1]; HeLa or A431 cells): < 10%
pIC50 [2, 3]: > 5.00

Compound: COC(=O)[C@H](CC(=O)O)NC(=O)[C@@H]1Cc2ccc(cc2)NC(=O)CCC(=O)N[C@H](Cc2cccs2)C(=O)N[C@@H](Cc2ccc(-c3ccccc3)cc2)C(=O)N[C@H](Cc2ccccc2)C(=O)N1 [Compound 29] ([d2Thi][Bip][dF][Phe(4-NH2)]D-OMe; linker N-4 via Suc)
inhibition at 25 µM ([1]; HeLa or A431 cells): < 10%
pIC50 [2, 3]: > 5.00

Compound: O=C1CCC(=O)N[C@H](Cc2cccs2)C(=O)N[C@@H](Cc2ccc(-c3ccccc3)cc2)C(=O)N[C@H](Cc2ccccc2)C(=O)N[C@H](C(=O)NC2(C(=O)O)CC2)Cc2ccc(cc2)N1 [Compound 39] ([d2Thi][Bip][dF][Phe(4-NH2)][Ac3c]-OH; linker N-4 via Suc)
inhibition at 10 µM [1, 5]: 10 to 50%
pIC50 [2, 3]: > 5.00

Compound: NCCCC(=O)N[C@@H]1CC(=O)Nc2ccc(cc2)C[C@@H](C(=O)O)NC(=O)[C@@H](Cc2ccccc2)NC(=O)[C@H](Cc2ccc(-c3ccccc3)cc2)NC(=O)[C@@H](Cc2cccs2)NC1=O [Compound 380] (H-[GABA][dD][d2Thi][Bip][dF][Phe(4-NH2)]-OH; lactam 2-6)
inhibition at 5 µM [1, 4]: < 10%
inhibition at 10 µM [1, 5]: < 10%
pIC50 [2, 3]: > 5.00
